ChEMBL document CHEMBL4483862, “Open-source discovery of chemical leads for next-generation chemoprotective antimalarials” (2018)

Test system: Plasmodium berghei
Test: Luciferase/luciferin-expressing antifolate-resistant parasites were used to infect a culture of HepG2 cells that were pre-incubated with compounds. Infected hepatocytes emit light due to the luciferase reaction. Assay results are presented as the percent inhibition of light emission compared to control. […]
Assay type: functional
Details: sporozoite; for IC90: read-out: LUCIFERASE INFECTION ASSAY - IC90
[1] = read-out: LUCIFERASE INFECTION ASSAY - IC50

Row | Structure (SMILES) | IC90 [µM] | also measured
1 | COc1ccc2c(c1)/C(=N/NC(=O)c1ccc(CSc3ccc(Cl)cc3)cc1)C(=O)N2 | > 10 | IC50 (FFLUC_HILL_SLOPE 11.4, FFLUC_R_SQUARED 0.124, PBLUC_HILL_SLOPE 3.43, PBLUC_R_SQUARED 0.087, read-out: LUCIFERASE INFECTION ASSAY - IC50): 6.03 µM
2 | N#CC1(c2ccccc2)C/C(=C\c2cccs2)C(=O)/C(=C/c2cccs2)C1 (configuration not stated) | > 10 | IC50 (FFLUC_HILL_SLOPE 0.232, FFLUC_R_SQUARED 0.325, read-out: LUCIFERASE INFECTION ASSAY - IC50): > 10 µM
3 | CCCCCc1ccc(C(=O)Nc2nc3ccccn3c2C(=O)NCCCN2CCOCC2)cc1 | 3.5 | IC50 (PBLUC_HILL_SLOPE 8.91, PBLUC_R_SQUARED 0.136, read-out: LUCIFERASE INFECTION ASSAY - IC50): 2.74 µM
4 | COC(=O)c1sccc1Oc1ccc(C(F)(F)F)cc1NC(=S)Nc1cc(Cl)cc(Cl)c1 | > 6.33 | IC50 [1]: > 6.33 µM
5 | CO[C@H]1[C@H](O)[C@H](O[C@H]2CC[C@]3(C)C4CC[C@]5(C)C(C6=CC(=O)OC6)CC[C@]5(O)C4CC[C@@H]3C2)O[C@@H](C)[C@@H]1O (some centres not stated) | 0.138 | –
6 | CCn1c2ccccc2c2cc(NC(=O)COC(=O)CCNS(=O)(=O)c3cccc(C)c3)ccc21 | > 10 | IC50 (FFLUC_HILL_SLOPE 22.4, FFLUC_R_SQUARED 0.497, HEPG2TOX_HILL_SLOPE 9.12, HEPG2TOX_R_SQUARED 0.733, read-out: LUCIFERASE INFECTION ASSAY - IC50): > 10 µM
7 | N#Cc1ccc(CN2CCN(CC(=O)Nc3nc(-c4c[nH]c5ccccc45)cs3)CC2)cc1 | 3.45 | IC50 (HEPG2TOX_HILL_SLOPE 1.59, HEPG2TOX_R_SQUARED 0.927, PBLUC_HILL_SLOPE 64.1, PBLUC_R_SQUARED 0.488, read-out: LUCIFERASE INFECTION ASSAY - IC50): 3.33 µM
8 | Cc1ccc(S(=O)(=O)NNC(=O)COc2ccc(SC(F)(F)F)cc2)cc1 | > 7.85 | IC50 (PBLUC_HILL_SLOPE 0.658, PBLUC_R_SQUARED 0.0672, read-out: LUCIFERASE INFECTION ASSAY - IC50): > 7.85 µM
9 | COc1ccc(-n2cnnc2SCC(=O)NC(=O)NC2CCCC2)cc1 | > 10 | IC50 (FFLUC_HILL_SLOPE 14.6, FFLUC_R_SQUARED 0.0899, read-out: LUCIFERASE INFECTION ASSAY - IC50): > 10 µM
10 | O=C(Nc1nc(-c2c[nH]c3ccccc23)cs1)C1CCN(S(=O)(=O)/C=C/c2ccccc2)CC1 | > 10 | IC50 (FFLUC_HILL_SLOPE 3.31, FFLUC_R_SQUARED 0.738, HEPG2TOX_HILL_SLOPE 1.04, HEPG2TOX_R_SQUARED 0.854, PBLUC_HILL_SLOPE 3.38, PBLUC_R_SQUARED 0.26, read-out: LUCIFERASE INFECTION ASSAY - IC50): 5.31 µM
11 | O=C1C(=O)N(Cc2ccccc2Cl)c2c1cccc2C(F)(F)F | 3.7 | IC50 (FFLUC_HILL_SLOPE 12, FFLUC_R_SQUARED 0.566, HEPG2TOX_HILL_SLOPE 13.8, HEPG2TOX_R_SQUARED 0.966, PBLUC_HILL_SLOPE 12.2, PBLUC_R_SQUARED 0.654, read-out: LUCIFERASE INFECTION ASSAY - IC50): 3.09 µM
12 | Cc1ccc(OCCOC(=O)c2cc(=O)[nH]c3ccccc23)cc1 | > 10 | IC50 (FFLUC_HILL_SLOPE 2.13, FFLUC_R_SQUARED 0.116, read-out: LUCIFERASE INFECTION ASSAY - IC50): > 10 µM
13 | O=C(OCC(=O)N1CCN(C(=O)c2ccco2)CC1)c1cccc(NS(=O)(=O)c2ccc(F)c(F)c2)c1 | > 10 | IC50 [1]: > 10 µM
14 | Oc1cc2[nH]c3ccccc3c2cc1CN1CCN(Cc2cccs2)CC1 | > 10 | IC50 (HEPG2TOX_HILL_SLOPE 0.0488, HEPG2TOX_R_SQUARED 0.0234, PBLUC_HILL_SLOPE 24, PBLUC_R_SQUARED 0.263, read-out: LUCIFERASE INFECTION ASSAY - IC50): 9.5 µM
15 | CC(=O)c1ccc(-c2cnc(N)c(-c3cccc(N(C)C)c3)c2)s1 | 4.08 | IC50 (HEPG2TOX_HILL_SLOPE 12.1, HEPG2TOX_R_SQUARED 0.413, PBLUC_HILL_SLOPE 8.96, PBLUC_R_SQUARED 0.727, read-out: LUCIFERASE INFECTION ASSAY - IC50): 3.19 µM
16 | CC(C)(NCC(=O)Nc1ccccc1C(N)=O)c1ccc2c(c1)OCO2 | > 10 | IC50 (PBLUC_HILL_SLOPE 7.96, PBLUC_R_SQUARED 0.17, read-out: LUCIFERASE INFECTION ASSAY - IC50): > 10 µM
17 | Cc1c(C(=O)c2ccccc2)oc2ccc(NC(=O)c3ccco3)cc12 | > 9.56 | IC50 (PBLUC_HILL_SLOPE 11.9, PBLUC_R_SQUARED 0.0568, read-out: LUCIFERASE INFECTION ASSAY - IC50): > 9.56 µM
18 | Cn1cccc1C(=O)OCC(=O)NCc1cccs1 | > 10 | IC50 [1]: > 10 µM
19 | Clc1ccc(Sc2ncnc3sccc23)cc1 | > 11.8 | IC50 [1]: > 11.8 µM
20 | Cc1c(C(=O)NC2CCN(Cc3ccccc3)C2)oc2c(Cl)cccc12 (configuration not stated) | > 10 | IC50 [1]: > 10 µM

Row | Structure (SMILES) | IC90 [µM] | also measured
21 | Cc1cc(C(=O)Cn2cnc3ccccc3c2=O)c(C)n1-c1ccccc1F | > 10 | IC50 (HEPG2TOX_HILL_SLOPE 1.86, HEPG2TOX_R_SQUARED 0.464, PBLUC_HILL_SLOPE 1.21, PBLUC_R_SQUARED 0.574, read-out: LUCIFERASE INFECTION ASSAY - IC50): 3.66 µM
22 | Cc1n(-c2ccccc2)c2c([n+]1C)C(=O)c1ccccc1C2=O | 0.202 | IC50 (HEPG2TOX_HILL_SLOPE 0.753, HEPG2TOX_R_SQUARED 0.901, PBLUC_HILL_SLOPE 2.16, PBLUC_R_SQUARED 0.72, read-out: LUCIFERASE INFECTION ASSAY - IC50): 0.0731 µM
23 | O=C(NCCSCc1ccccc1Cl)c1cccs1 | 8.99 | IC50 (PBLUC_HILL_SLOPE 3.91, PBLUC_R_SQUARED 0.447, read-out: LUCIFERASE INFECTION ASSAY - IC50): 5.12 µM
24 | O=C(c1cccc(-c2nn[nH]n2)c1)N1CCC2CCCCC2C1 (configuration not stated) | > 10 | IC50 [1]: > 10 µM
25 | Cc1ccc(N/N=C(\C=N\N)C(=O)c2ccc(Cl)cc2)cc1 | > 10.5 | IC50 (HEPG2TOX_HILL_SLOPE 1.68, HEPG2TOX_R_SQUARED 0.854, PBLUC_HILL_SLOPE 3.07, PBLUC_R_SQUARED 0.149, read-out: LUCIFERASE INFECTION ASSAY - IC50): 5.16 µM
26 | Cc1nn(Cc2ccccc2Cl)c2sc(C(=O)NC3CCN(Cc4ccccc4)CC3)cc12 | > 10 | IC50 [1]: > 10 µM
27 | NS(=O)(=O)c1ccc(-n2ncc(Nc3ccc(F)cc3)c(Cl)c2=O)cc1 | > 10 | IC50 (HEPG2TOX_HILL_SLOPE 0.263, HEPG2TOX_R_SQUARED 0.596, PBLUC_HILL_SLOPE 7.27, PBLUC_R_SQUARED 0.0377, read-out: LUCIFERASE INFECTION ASSAY - IC50): > 10 µM
28 | C=CCNc1nc(Nc2ccc(OC)c(OC)c2)c2sc(-c3ccccc3)cc2n1 | > 7.88 | IC50 [1]: 3.61 µM
29 | COc1ccc(NS(=O)(=O)c2ccc(/C=C/C(=O)N(C)Cc3ccc(OC)c(OC)c3OC)cc2)cc1 | > 10 | IC50 (HEPG2TOX_HILL_SLOPE 0.416, HEPG2TOX_R_SQUARED 0.547, PBLUC_HILL_SLOPE 11.7, PBLUC_R_SQUARED 0.671, read-out: LUCIFERASE INFECTION ASSAY - IC50): 9.46 µM
30 | Cc1noc(C)c1CSc1nc(C(C)(C)C)nc2c1c(=O)n(C)c(=O)n2C | > 10 | IC50 [1]: > 10 µM
31 | Cc1cc(C(=O)CN2C(=O)NC3(CCCc4sccc43)C2=O)c(C)n1Cc1ccc2c(c1)OCO2 (configuration not stated) | > 10 | IC50 (PBLUC_HILL_SLOPE 2.26, PBLUC_R_SQUARED 0.443, read-out: LUCIFERASE INFECTION ASSAY - IC50): 8.17 µM
32 | CCN(Cc1ccc2c(c1)OCCO2)C(=O)C1CCN(c2ncnc3sc(C)c(C)c23)CC1 | > 10 | IC50 [1]: > 10 µM
33 | O=c1c(C(F)(F)F)cccn1Cc1csc(COc2ccc(Cl)cc2)n1 | > 10 | IC50 (HEPG2TOX_HILL_SLOPE 13.6, HEPG2TOX_R_SQUARED 0.877, PBLUC_HILL_SLOPE 2.65, PBLUC_R_SQUARED 0.537, read-out: LUCIFERASE INFECTION ASSAY - IC50): 7.31 µM
34 | Brc1cnc2nc(-c3ccccc3)[nH]c2c1 | 7.03 | IC50 (HEPG2TOX_HILL_SLOPE 8.76, HEPG2TOX_R_SQUARED 0.602, PBLUC_HILL_SLOPE 4.6, PBLUC_R_SQUARED 0.128, read-out: LUCIFERASE INFECTION ASSAY - IC50): 4.36 µM
35 | CCN(CC)c1ccc(NC(=O)c2cccc(N3C(=O)c4ccccc4C3=O)c2)cc1S(=O)(=O)Nc1ccccc1OC | > 10 | IC50 (FFLUC_HILL_SLOPE 15.4, FFLUC_R_SQUARED 0.773, PBLUC_HILL_SLOPE 13.2, PBLUC_R_SQUARED 0.21, read-out: LUCIFERASE INFECTION ASSAY - IC50): 9.38 µM
36 | O=C(NC1CCCC1)c1ccc(-c2cn3c(-c4ccc(C(=O)NC5CC5)cc4)cnc3cn2)cc1 | > 7.09 | IC50 (PBLUC_HILL_SLOPE 2.95, PBLUC_R_SQUARED 0.52, read-out: LUCIFERASE INFECTION ASSAY - IC50): 4.87 µM
37 | Cc1nn(-c2ccccc2)c2nc(-c3cccs3)cc(C(=O)OC(C)C(=O)N3CCCc4ccccc43)c12 (configuration not stated) | > 10 | IC50 (FFLUC_HILL_SLOPE 2.63, FFLUC_R_SQUARED 0.683, PBLUC_HILL_SLOPE 9.18, PBLUC_R_SQUARED 0.333, read-out: LUCIFERASE INFECTION ASSAY - IC50): 8.32 µM
38 | O=[N+]([O-])c1c(Sc2ccc(Cl)cc2)ccc2nsnc12 | 8.49 | IC50 (FFLUC_HILL_SLOPE 1.96, FFLUC_R_SQUARED 0.577, HEPG2TOX_HILL_SLOPE 12.8, HEPG2TOX_R_SQUARED 0.787, PBLUC_HILL_SLOPE 2.81, PBLUC_R_SQUARED 0.465, read-out: LUCIFERASE INFECTION ASSAY - IC50): 3.88 µM
39 | Cn1c(CSc2cccs2)n[nH]c1=S | > 13.6 | IC50 (FFLUC_HILL_SLOPE 40, FFLUC_R_SQUARED 0.0342, read-out: LUCIFERASE INFECTION ASSAY - IC50): > 13.6 µM
